Source: PubChem BioAssay (NCI)
“And” between values parts separate entries of the source, which are not always exact repeats. Equal values may be shown once.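 Values below derive from 48-hour exposures of cells grown in 96-well plates, with endpoints linearly interpolated between the two concentrations bracketing the appropriate inhibition level. Abbreviation: GI50, concentration required for 50% inhibition of growth. TGI denotes the concentration required for complete inhibition of growth.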

Assays:
Test in all cases: DTP human tumour cell line panel, 48 h
[1] = tested on: U251 CNS
[2] = tested on: RPMI-8226 leukemia
[3] = tested on: SK-MEL-5 melanoma
[4] = tested on: K-562 leukemia
[5] = tested on: EKVX NSCLC
[6] = tested on: OVCAR-3 ovarian
[7] = tested on: A549 NSCLC
[8] = tested on: LOX IMVI melanoma
[9] = tested on: NCI-H522 lung
[10] = tested on: PC-3 prostate
[11] = tested on: T-47D breast
[12] = tested on: ACHN renal
[13] = tested on: SW-620 colon
[14] = tested on: MOLT-4 leukemia
[15] = tested on: HCC-2998 colon
[16] = tested on: SNB-75 CNS
[17] = tested on: M14 melanoma
[18] = tested on: SK-MEL-2 melanoma
[19] = tested on: HS 578T breast
[20] = tested on: CCRF-CEM leukemia
[21] = tested on: HT29 colon
[22] = tested on: RXF 393 renal
[23] = tested on: SN12C renal
[24] = tested on: SNB-19 CNS
[25] = tested on: KM12 colon
[26] = tested on: NCI-H226 lung
[27] = tested on: A498 renal
[28] = tested on: MCF7 breast
[29] = tested on: HCT-15 colon
[30] = tested on: OVCAR-5 ovarian
[31] = tested on: COLO 205 colon
[32] = tested on: MDA-N
[33] = tested on: HOP-92 NSCLC
[34] = tested on: SF-539 CNS
[35] = tested on: CAKI-1 renal
[36] = tested on: SF-268 CNS
[37] = tested on: MDA-MB-435
[38] = tested on: SK-OV-3 ovarian
[39] = tested on: UACC-62 melanoma
[40] = tested on: BT-549 breast
[41] = tested on: OVCAR-8 ovarian
[42] = tested on: HOP-62 NSCLC
[43] = tested on: SK-MEL-28 melanoma
[44] = tested on: NCI-H23 lung
[45] = tested on: HCT-116 colon
[46] = tested on: MALME-3M melanoma
[47] = tested on: SF-295 CNS
[48] = tested on: UACC-257 melanoma
[49] = tested on: MDA-MB-231 breast
[50] = tested on: SR leukemia
[51] = tested on: NCI/ADR-RES ovarian
[52] = tested on: 786-0 renal
[53] = tested on: TK-10 renal
[54] = tested on: DU-145 prostate
[55] = tested on: OVCAR-4 ovarian
[56] = tested on: IGROV1 ovarian
[57] = tested on: UO-31 renal
[58] = tested on: NCI-H460 lung
[59] = tested on: HL-60(TB) leukemia

O=Cc1ccc(-c2cc(C=O)c(-c3cccs3)[nH]2)s1 was tested, and the GI50 [1] was over 100 µM, the TGI [1] was 62.9 µM and > 100 µM and the GI50 [2] was 79.1 µM. The TGI [2] was 75 µM and > 100 µM, the GI50 [3] was 40.5 µM and the TGI [3] was 75 µM and > 100 µM. For the same compound, the GI50 [4] was 77.5 µM, the TGI [4] was 75 µM and > 100 µM and the GI50 [5] was 47.8 µM. For the same compound, the TGI [5] was 75 µM and > 100 µM, the GI50 [6] was 52 µM and the TGI [6] was 53.7 µM and > 100 µM. For the same compound, the GI50 [7] was 29.8 µM, the TGI [7] was 75 µM and > 100 µM and the GI50 [8] was over 100 µM. The TGI [8] was 75 µM and > 100 µM, the GI50 [9] was 19.6 µM and the TGI [9] was 19.9 µM and 57.4 µM. The GI50 [10] was over 100 µM, the TGI [10] was 75 µM and > 100 µM and the GI50 [11] was 18.2 µM. For the same compound, the TGI [11] was 49.6 µM and > 100 µM, the GI50 [12] was 78.6 µM and the TGI [12] was 75 µM and > 100 µM. For the same compound, the GI50 [13] was over 100 µM, the TGI [13] was over 100 µM and the GI50 [14] was 81 µM. The TGI [14] was 75 µM and > 100 µM, the GI50 [15] was 20.1 µM and the TGI [15] was 56.6 µM and > 100 µM. The GI50 [16] was 29.5 µM, the TGI [16] was 52.2 µM and > 100 µM and the GI50 [17] was 27.5 µM. For the same compound, the TGI [17] was 75 µM and > 100 µM, the GI50 [18] was over 100 µM and the TGI [18] was 75 µM and > 100 µM. For the same compound, the GI50 [19] was over 100 µM, the TGI [19] was 75 µM and > 100 µM and the GI50 [20] was over 100 µM. The TGI [20] was 75 µM and > 100 µM, the TGI [21] was 75 µM and the GI50 [22] was 23.3 µM. The TGI [22] was 75 µM and > 100 µM, the TGI [23] was 75 µM and > 100 µM and the GI50 [24] was over 100 µM. For the same compound, the TGI [24] was 75 µM and > 100 µM, the GI50 [25] was 50.8 µM and the TGI [25] was 75 µM and > 100 µM. The TGI [26] was 40 µM, the TGI [27] was 5.73 µM and 4.49 µM and the GI50 [28] was 7.36 µM. For the same compound, the TGI [28] was 75 µM and > 100 µM, the GI50 [29] was 74.8 µM and the TGI [29] was 75 µM and > 100 µM. The GI50 [30] was 66.4 µM, the TGI [30] was over 100 µM and the TGI [31] was 75 µM and 88.6 µM. The GI50 [32] was 33.7 µM, the TGI [32] was 75 µM and > 100 µM and the GI50 [33] was over 100 µM. For the same compound, the TGI [33] was 75 µM and > 100 µM, the TGI [34] was 75 µM and the GI50 [35] was 53.5 µM. The TGI [35] was 58.3 µM and > 100 µM, the GI50 [36] was over 100 µM and the TGI [36] was over 100 µM. For the same compound, the GI50 [37] was 43.7 µM, the TGI [37] was 75 µM and > 100 µM and the GI50 [38] was over 100 µM. For the same compound, the TGI [38] was 75 µM and > 100 µM, the GI50 [39] was 46 µM and the TGI [39] was 75 µM and > 100 µM. The GI50 [40] was over 100 µM, the TGI [40] was 75 µM and > 100 µM and the GI50 [41] was over 100 µM. For the same compound, the TGI [41] was 75 µM and > 100 µM, the GI50 [42] was over 100 µM and the TGI [42] was 72.5 µM and > 100 µM. For the same compound, the GI50 [43] was over 100 µM, the TGI [43] was 75 µM and > 100 µM and the GI50 [44] was over 100 µM. For the same compound, the TGI [44] was 75 µM and > 100 µM, the GI50 [45] was 64.2 µM and the TGI [45] was 75 µM and > 100 µM. For the same compound, the GI50 [46] was over 100 µM, the TGI [46] was 75 µM and > 100 µM and the GI50 [47] was 36.9 µM. The TGI [47] was 75 µM and > 100 µM, the GI50 [48] was over 100 µM and the TGI [48] was 75 µM and > 100 µM. For the same compound, the GI50 [49] was over 100 µM, the TGI [49] was 75 µM and > 100 µM and the GI50 [50] was 31.6 µM. The TGI [50] was 72.7 µM and > 100 µM, the GI50 [51] was 68.3 µM and the TGI [51] was 75 µM and > 100 µM. For the same compound, the GI50 [52] was over 100 µM, the TGI [52] was 75 µM and > 100 µM and the GI50 [53] was 85 µM. For the same compound, the TGI [53] was 75 µM and > 100 µM, the TGI [54] was 75 µM and > 100 µM and the GI50 [55] was 12 µM. The TGI [55] was 75 µM and > 100 µM, the GI50 [56] was 30.8 µM and the TGI [56] was 75 µM and > 100 µM. For the same compound, the GI50 [57] was 34 µM, the TGI [57] was 75 µM and > 100 µM and the GI50 [58] was 48.2 µM. The TGI [58] was 75 µM and > 100 µM.

C=C(Cl)c1c(OC)cccc1OCc1ccccc1 was tested, and the TGI [59] was over 100 µM, the TGI [1] was over 100 µM and the TGI [2] was over 100 µM. It also gave a TGI [3] of over 100 µM, a TGI [4] of over 100 µM and a TGI [5] of over 100 µM. The TGI [6] was over 100 µM, the TGI [7] was over 100 µM and the TGI [8] was over 100 µM. For the same compound, the TGI [9] was over 100 µM, the TGI [10] was over 100 µM and the TGI [11] was 95.7 µM. The TGI [12] was over 100 µM, the TGI [13] was over 100 µM and the TGI [14] was over 100 µM. For the same compound, the TGI [15] was over 100 µM, the TGI [16] was over 100 µM and the TGI [17] was over 100 µM. The TGI [18] was over 100 µM, the TGI [19] was over 100 µM and the TGI [20] was over 100 µM. For the same compound, the TGI [21] was over 100 µM, the TGI [22] was 51.9 µM and the TGI [23] was over 100 µM. For the same compound, the TGI [24] was over 100 µM, the TGI [25] was over 100 µM and the TGI [26] was over 100 µM. It also gave a TGI [27] of over 100 µM, a TGI [28] of over 100 µM and a TGI [29] of over 100 µM. It also gave a TGI [30] of over 100 µM, a TGI [31] of over 100 µM and a TGI [32] of over 100 µM. For the same compound, the TGI [33] was 78.9 µM, the TGI [34] was over 100 µM and the TGI [35] was over 100 µM. The TGI [36] was over 100 µM, the TGI [37] was over 100 µM and the TGI [38] was over 100 µM. For the same compound, the TGI [39] was over 100 µM, the TGI [40] was over 100 µM and the TGI [41] was over 100 µM. For the same compound, the TGI [42] was over 100 µM, the TGI [43] was over 100 µM and the TGI [44] was over 100 µM. It also gave a TGI [45] of over 100 µM, a TGI [46] of over 100 µM and a TGI [47] of over 100 µM. The TGI [48] was 40.6 µM, the TGI [49] was over 100 µM and the TGI [50] was over 100 µM. It also gave a TGI [51] of over 100 µM, a TGI [52] of over 100 µM and a TGI [53] of over 100 µM. The TGI [54] was over 100 µM, the TGI [55] was over 100 µM and the TGI [56] was over 100 µM. The TGI [57] was over 100 µM and the TGI [58] was over 100 µM.

With CSc1nc(C)c2c(n1)SCC2 the TGI [59] was over 10 µM, the TGI [1] was over 10 µM and the TGI [2] was over 10 µM. The TGI [3] was over 10 µM, the TGI [4] was over 10 µM and the TGI [5] was over 10 µM. For the same compound, the TGI [6] was over 10 µM, the TGI [7] was over 10 µM and the TGI [8] was over 10 µM. The TGI [10] was over 10 µM, the TGI [11] was over 10 µM and the TGI [12] was over 10 µM. For the same compound, the TGI [13] was over 10 µM, the TGI [14] was over 10 µM and the TGI [16] was over 10 µM. It also gave a TGI [17] of over 10 µM, a TGI [19] of over 10 µM and a TGI [20] of over 10 µM. The TGI [21] was over 10 µM, the TGI [22] was over 10 µM and the TGI [23] was over 10 µM. It also gave a TGI [24] of over 10 µM, a TGI [25] of over 10 µM and a TGI [26] of over 10 µM. The TGI [27] was over 10 µM, the TGI [28] was over 10 µM and the TGI [29] was over 10 µM. For the same compound, the TGI [30] was over 10 µM, the TGI [31] was over 10 µM and the TGI [32] was over 10 µM. It also gave a TGI [33] of over 10 µM, a TGI [34] of over 10 µM and a TGI [35] of over 10 µM. It also gave a TGI [36] of over 10 µM, a TGI [37] of over 10 µM and a TGI [38] of over 10 µM. The TGI [39] was over 10 µM, the TGI [40] was over 10 µM and the TGI [41] was over 10 µM. For the same compound, the TGI [42] was over 10 µM, the TGI [43] was over 10 µM and the TGI [44] was over 10 µM. It also gave a TGI [45] of over 10 µM, a TGI [46] of over 10 µM and a TGI [47] of over 10 µM. It also gave a TGI [48] of over 10 µM, a TGI [49] of over 10 µM and a TGI [50] of over 10 µM. The TGI [51] was over 10 µM, the TGI [52] was over 10 µM and the TGI [53] was over 10 µM. For the same compound, the TGI [54] was over 10 µM, the TGI [55] was over 10 µM and the TGI [56] was over 10 µM. The TGI [57] was over 10 µM and the TGI [58] was over 10 µM.
